Reference: PubChem BioAssay (NCI)
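In this assay, cells in 96-well plates receive the compound at five concentrations for 48 hours. Endpoints are linearly interpolated between the surrounding concentrations. GI50 is the concentration that inhibits growth by half. TGI is the concentration that stops growth completely.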

Assays:
Test in all cases: NCI tumour cell line growth inhibition, 48 h
786-0 renal = system: 786-0 renal
A498 renal = system: A498 renal
A549 NSCLC = system: A549 NSCLC
ACHN renal = system: ACHN renal
BT-549 breast = system: BT-549 breast
CAKI-1 renal = system: CAKI-1 renal
CCRF-CEM leukemia = system: CCRF-CEM leukemia
COLO 205 colon = system: COLO 205 colon
DLD-1 colon = system: DLD-1 colon
DMS 114 small cell lung = system: DMS 114 small cell lung
DMS 273 small cell lung = system: DMS 273 small cell lung
DU-145 prostate = system: DU-145 prostate
EKVX NSCLC = system: EKVX NSCLC
HCC-2998 colon = system: HCC-2998 colon
HCT-116 colon = system: HCT-116 colon
HCT-15 colon = system: HCT-15 colon
HL-60(TB) leukemia = system: HL-60(TB) leukemia
HOP-18 NSCLC = system: HOP-18 NSCLC
HOP-62 NSCLC = system: HOP-62 NSCLC
HOP-92 NSCLC = system: HOP-92 NSCLC
HS 578T breast = system: HS 578T breast
HT29 colon = system: HT29 colon
IGROV1 ovarian = system: IGROV1 ovarian
K-562 leukemia = system: K-562 leukemia
KM12 colon = system: KM12 colon
KM20L2 colon = system: KM20L2 colon
LOX IMVI melanoma = system: LOX IMVI melanoma
M14 melanoma = system: M14 melanoma
M19-MEL melanoma = system: M19-MEL melanoma
MALME-3M melanoma = system: MALME-3M melanoma
MCF7 breast = system: MCF7 breast
MDA-MB-231 breast = system: MDA-MB-231 breast
MDA-N = system: MDA-N
MOLT-4 leukemia = system: MOLT-4 leukemia
NCI-H226 lung = system: NCI-H226 lung
NCI-H23 lung = system: NCI-H23 lung
NCI-H460 lung = system: NCI-H460 lung
NCI-H522 lung = system: NCI-H522 lung
NCI/ADR-RES ovarian = system: NCI/ADR-RES ovarian
OVCAR-3 ovarian = system: OVCAR-3 ovarian
OVCAR-4 ovarian = system: OVCAR-4 ovarian
OVCAR-5 ovarian = system: OVCAR-5 ovarian
OVCAR-8 ovarian = system: OVCAR-8 ovarian
P388 leukemia = system: P388 leukemia
P388/ADR leukemia = system: P388/ADR leukemia
PC-3 prostate = system: PC-3 prostate
RPMI-8226 leukemia = system: RPMI-8226 leukemia
RXF 393 renal = system: RXF 393 renal
SF-268 CNS = system: SF-268 CNS
SF-295 CNS = system: SF-295 CNS
SF-539 CNS = system: SF-539 CNS
SK-MEL-2 melanoma = system: SK-MEL-2 melanoma
SK-MEL-28 melanoma = system: SK-MEL-28 melanoma
SK-MEL-5 melanoma = system: SK-MEL-5 melanoma
SK-OV-3 ovarian = system: SK-OV-3 ovarian
SN12C renal = system: SN12C renal
SN12K1 renal = system: SN12K1 renal
SNB-19 CNS = system: SNB-19 CNS
SNB-75 CNS = system: SNB-75 CNS
SNB-78 CNS = system: SNB-78 CNS
SR leukemia = system: SR leukemia
SW-620 colon = system: SW-620 colon
T-47D breast = system: T-47D breast
TK-10 renal = system: TK-10 renal
U251 CNS = system: U251 CNS
UACC-257 melanoma = system: UACC-257 melanoma
UACC-62 melanoma = system: UACC-62 melanoma
UO-31 renal = system: UO-31 renal
XF 498 CNS = system: XF 498 CNS
LXFL 529 NSCLC = system: LXFL 529 NSCLC
RXF-631 renal = system: RXF-631 renal

SMILES: C=C1C(C)C2C(Cc3ccccc3)NC(=O)C23C(OC(C)=O)/C=C/C(C)(O)CC(C)C/C=C/C3C1O (stereo not given)
- TGI (786-0 renal): > 100 µM
- TGI (A498 renal): 1.15 µM
- TGI (A549 NSCLC): > 100 µM
- TGI (ACHN renal): > 100 µM
- TGI (BT-549 breast): > 47.3 µM
- TGI (CAKI-1 renal): 3.08 µM
- TGI (CCRF-CEM leukemia): 85 µM
- TGI (COLO 205 colon): > 100 µM
- TGI (DLD-1 colon): > 100 µM
- TGI (DMS 114 small cell lung): > 100 µM
- TGI (DMS 273 small cell lung): > 82 µM
- TGI (DU-145 prostate): > 100 µM
- TGI (EKVX NSCLC): > 96.7 µM
- TGI (HCC-2998 colon): > 100 µM
- TGI (HCT-116 colon): > 100 µM
- TGI (HCT-15 colon): > 100 µM
- TGI (HL-60(TB) leukemia): 36 µM
- TGI (HOP-18 NSCLC): 0.814 µM
- TGI (HOP-62 NSCLC): 3.08 µM
- TGI (HOP-92 NSCLC): 1.01 µM
- TGI (HS 578T breast): 0.62 µM
- TGI (HT29 colon): > 100 µM
- TGI (IGROV1 ovarian): 48.2 µM
- TGI (K-562 leukemia): > 100 µM
- TGI (KM12 colon): > 100 µM
- TGI (KM20L2 colon): > 100 µM
- TGI (LOX IMVI melanoma): 19.2 µM
- TGI (M14 melanoma): > 100 µM
- TGI (M19-MEL melanoma): > 100 µM
- TGI (MALME-3M melanoma): > 94.4 µM
- TGI (MCF7 breast): > 94.5 µM
- TGI (MDA-MB-231 breast): > 100 µM
- TGI (MDA-N): > 100 µM
- TGI (MOLT-4 leukemia): 77.2 µM
- TGI (NCI-H226 lung): 42.3 µM
- TGI (NCI-H23 lung): 91.6 µM
- TGI (NCI-H460 lung): > 95.2 µM
- TGI (NCI-H522 lung): 45.1 µM
- TGI (NCI/ADR-RES ovarian): > 100 µM
- TGI (OVCAR-3 ovarian): > 100 µM
- TGI (OVCAR-4 ovarian): 82.9 µM
- TGI (OVCAR-5 ovarian): > 100 µM
- TGI (OVCAR-8 ovarian): > 100 µM
- TGI (P388 leukemia): 41.3 µM
- TGI (P388/ADR leukemia): 33.5 µM
- GI50 (PC-3 prostate): 15.8 µM
- TGI (PC-3 prostate): > 100 µM
- TGI (RPMI-8226 leukemia): 71.2 µM
- TGI (RXF 393 renal): 2.97 µM
- TGI (SF-268 CNS): 41.2 µM
- TGI (SF-295 CNS): 33.2 µM
- TGI (SF-539 CNS): 13 µM
- TGI (SK-MEL-2 melanoma): 76.5 µM
- TGI (SK-MEL-28 melanoma): > 97.7 µM
- TGI (SK-MEL-5 melanoma): 35.6 µM
- TGI (SK-OV-3 ovarian): 46.6 µM
- TGI (SN12C renal): > 100 µM
- TGI (SN12K1 renal): 37.1 µM
- TGI (SNB-19 CNS): 20.7 µM
- TGI (SNB-75 CNS): 0.0862 µM
- TGI (SNB-78 CNS): 1.3 µM
- TGI (SR leukemia): > 59.9 µM
- TGI (SW-620 colon): > 100 µM
- TGI (T-47D breast): > 100 µM
- TGI (TK-10 renal): > 54.5 µM
- TGI (U251 CNS): 18.4 µM
- TGI (UACC-257 melanoma): 86.5 µM
- TGI (UACC-62 melanoma): > 91.8 µM
- TGI (UO-31 renal): 1.1 µM
- TGI (XF 498 CNS): 8.29 µM

SMILES: O=c1nc2cc(-c3ccccc3)[nH]c2nn1-c1c(Cl)cc(Cl)cc1Cl
- TGI (786-0 renal): > 100 µM
- TGI (A498 renal): 89.7 µM
- TGI (A549 NSCLC): 91.7 µM
- TGI (CAKI-1 renal): 68.5 µM
- TGI (CCRF-CEM leukemia): 76.2 µM
- TGI (COLO 205 colon): 32.9 µM
- TGI (DLD-1 colon): > 100 µM
- TGI (DMS 114 small cell lung): > 100 µM
- TGI (DMS 273 small cell lung): > 100 µM
- TGI (EKVX NSCLC): 74 µM
- TGI (HCC-2998 colon): 32 µM
- TGI (HCT-116 colon): 40.1 µM
- TGI (HCT-15 colon): > 100 µM
- TGI (HL-60(TB) leukemia): 57.1 µM
- TGI (HOP-18 NSCLC): 44.9 µM
- TGI (HOP-62 NSCLC): 56.5 µM
- TGI (HOP-92 NSCLC): 64 µM
- TGI (HT29 colon): 88.7 µM
- TGI (IGROV1 ovarian): > 100 µM
- TGI (K-562 leukemia): > 100 µM
- TGI (KM12 colon): 39.2 µM
- TGI (KM20L2 colon): 57.5 µM
- TGI (LOX IMVI melanoma): 50 µM
- TGI (LXFL 529 NSCLC): > 100 µM
- TGI (M14 melanoma): 59.3 µM
- TGI (M19-MEL melanoma): 63.2 µM
- TGI (MALME-3M melanoma): 65.7 µM
- TGI (MOLT-4 leukemia): 64.5 µM
- TGI (NCI-H226 lung): 60.9 µM
- TGI (NCI-H23 lung): 50.2 µM
- TGI (NCI-H460 lung): > 100 µM
- TGI (NCI-H522 lung): 52.1 µM
- TGI (OVCAR-3 ovarian): 54.2 µM
- TGI (OVCAR-5 ovarian): > 100 µM
- TGI (OVCAR-8 ovarian): 95.8 µM
- TGI (RPMI-8226 leukemia): 61.1 µM
- TGI (RXF-631 renal): > 100 µM
- TGI (SF-268 CNS): > 100 µM
- TGI (SF-295 CNS): 93.2 µM
- TGI (SF-539 CNS): 33.5 µM
- TGI (SK-MEL-2 melanoma): 94 µM
- TGI (SK-MEL-28 melanoma): > 100 µM
- TGI (SK-MEL-5 melanoma): 56.4 µM
- TGI (SK-OV-3 ovarian): 92.4 µM
- TGI (SN12C renal): 83.7 µM
- TGI (SNB-19 CNS): > 100 µM
- TGI (SNB-78 CNS): > 100 µM
- TGI (SR leukemia): 62.5 µM
- TGI (SW-620 colon): > 100 µM
- TGI (TK-10 renal): 69.4 µM
- TGI (U251 CNS): 34.2 µM
- TGI (UACC-257 melanoma): 79.6 µM
- TGI (UACC-62 melanoma): 35.6 µM
- TGI (UO-31 renal): 47 µM
- TGI (XF 498 CNS): 64.1 µM
